For six molecules, mutagenic call results are on record in PubChem BioAssay AID1259407 (Chemical Carcinogenesis Research Information System (CCRIS), 2018).

The source made the active and inactive calls. How the calls were made is not given here.

In the data set the test system is CCRIS mutagenicity, Ames/micronucleus/aberration tests. The experiment in a line: CCRIS mutagenicity studies.
Where [1] appears, read: Test System: AMES SALMONELLA TYPHIMURIUM, Strain/Indicator: TA98, Metabolic Activation: HAMSTER, LIVER, S-9, AROCLOR 1254 (30%), Method: PREINCUBATION
Where [2] appears, read: Test System: AMES SALMONELLA TYPHIMURIUM, Strain/Indicator: TA98, Metabolic Activation: NONE, Method: PREINCUBATION
Setting [3] is: Test System: AMES SALMONELLA TYPHIMURIUM, Strain/Indicator: TA98, Metabolic Activation: RAT LIVER S-9, PCB, Method: PREINCUBATION
Where [4] appears, read: Test System: AMES SALMONELLA TYPHIMURIUM, Strain/Indicator: TA98, Metabolic Activation: RAT, LIVER, S-9, AROCLOR 1254 (30%), Method: PREINCUBATION
[5] abbreviates: Test System: AMES SALMONELLA TYPHIMURIUM, Strain/Indicator: TA100, Metabolic Activation: HAMSTER, LIVER, S-9, AROCLOR 1254 (30%), Method: PREINCUBATION
Setting [6] is: Test System: AMES SALMONELLA TYPHIMURIUM, Strain/Indicator: TA100, Metabolic Activation: NONE, Method: PREINCUBATION
[7] abbreviates: Test System: AMES SALMONELLA TYPHIMURIUM, Strain/Indicator: TA100, Metabolic Activation: RAT LIVER S-9, PCB, Method: PREINCUBATION
Setting [8] is: Test System: AMES SALMONELLA TYPHIMURIUM, Strain/Indicator: TA100, Metabolic Activation: RAT, LIVER, S-9, AROCLOR 1254 (30%), Method: PREINCUBATION
The mark [9] stands for this setting: Test System: AMES SALMONELLA TYPHIMURIUM, Strain/Indicator: TA104, Metabolic Activation: NONE, Method: PREINCUBATION
The mark [10] stands for this setting: Test System: AMES SALMONELLA TYPHIMURIUM, Strain/Indicator: TA104, Metabolic Activation: RAT LIVER S-9, PCB, Method: PREINCUBATION
Where [11] appears, read: Test System: E.COLI, Strain/Indicator: WP2 UVRA, Metabolic Activation: RAT LIVER S-9, PCB, Method: PREINCUBATION
[12] abbreviates: Test System: AMES SALMONELLA TYPHIMURIUM, Strain/Indicator: TA98, Metabolic Activation: NONE, Method: STANDARD PLATE.
The mark [13] stands for this setting: Test System: AMES SALMONELLA TYPHIMURIUM, Strain/Indicator: TA100, Metabolic Activation: NONE, Method: STANDARD PLATE.

For the molecule `O=Cc1ccccc1Cl`, the mutagenic call runs as follows: (Test System: AMES SALMONELLA TYPHIMURIUM, Strain/Indicator: TA97, Metabolic Activation: HAMSTER, LIVER, S-9, AROCLOR 1254 (10%), Method: PREINCUBATION) “inactive; negative”; (Test System: AMES SALMONELLA TYPHIMURIUM, Strain/Indicator: TA97, Metabolic Activation: HAMSTER, LIVER, S-9, AROCLOR 1254 (30%), Method: PREINCUBATION) “inactive; negative”; (Test System: AMES SALMONELLA TYPHIMURIUM, Strain/Indicator: TA97, Metabolic Activation: NONE, Method: PREINCUBATION) “inactive; negative”; (Test System: AMES SALMONELLA TYPHIMURIUM, Strain/Indicator: TA97, Metabolic Activation: RAT, LIVER, S-9, AROCLOR 1254 (10%), Method: PREINCUBATION) “inactive; negative”; (Test System: AMES SALMONELLA TYPHIMURIUM, Strain/Indicator: TA97, Metabolic Activation: RAT, LIVER, S-9, AROCLOR 1254 (30%), Method: PREINCUBATION) “inactive; negative”; (Test System: AMES SALMONELLA TYPHIMURIUM, Strain/Indicator: TA98, Metabolic Activation: HAMSTER, LIVER, S-9, AROCLOR 1254 (10%), Method: PREINCUBATION) “inactive; negative”. Moreover, the mutagenic call under setting [1] is “inactive; negative”; the mutagenic call under setting [2] was “inactive; negative”; the mutagenic call under setting [3] was “inactive; negative”; the mutagenic call (Test System: AMES SALMONELLA TYPHIMURIUM, Strain/Indicator: TA98, Metabolic Activation: RAT, LIVER, S-9, AROCLOR 1254 (10%), Method: PREINCUBATION) was “inactive; negative”; the mutagenic call under setting [4] is “inactive; negative”; the mutagenic call (Test System: AMES SALMONELLA TYPHIMURIUM, Strain/Indicator: TA100, Metabolic Activation: HAMSTER, LIVER, S-9, AROCLOR 1254 (10%), Method: PREINCUBATION) is “inactive; negative”. For the same molecule, the mutagenic call was “inactive; negative” under setting [5]; “inactive; negative” under setting [6]; “inactive; negative” under setting [7]; “inactive; negative” (Test System: AMES SALMONELLA TYPHIMURIUM, Strain/Indicator: TA100, Metabolic Activation: RAT, LIVER, S-9, AROCLOR 1254 (10%), Method: PREINCUBATION); “inactive; negative” under setting [8]; “inactive; negative” under setting [9]. The mutagenic call is “inactive; negative” under setting [10]; “inactive; negative” (Test System: AMES SALMONELLA TYPHIMURIUM, Strain/Indicator: TA1535, Metabolic Activation: HAMSTER, LIVER, S-9, AROCLOR 1254 (10%), Method: PREINCUBATION); “inactive; negative” (Test System: AMES SALMONELLA TYPHIMURIUM, Strain/Indicator: TA1535, Metabolic Activation: HAMSTER, LIVER, S-9, AROCLOR 1254 (30%), Method: PREINCUBATION); “inactive; negative” (Test System: AMES SALMONELLA TYPHIMURIUM, Strain/Indicator: TA1535, Metabolic Activation: NONE, Method: PREINCUBATION); “inactive; negative” (Test System: AMES SALMONELLA TYPHIMURIUM, Strain/Indicator: TA1535, Metabolic Activation: RAT, LIVER, S-9, AROCLOR 1254 (10%), Method: PREINCUBATION); “inactive; negative” (Test System: AMES SALMONELLA TYPHIMURIUM, Strain/Indicator: TA1535, Metabolic Activation: RAT, LIVER, S-9, AROCLOR 1254 (30%), Method: PREINCUBATION). Also, the mutagenic call reads like this: (Test System: AMES SALMONELLA TYPHIMURIUM, Strain/Indicator: TA1537, Metabolic Activation: HAMSTER, LIVER, S-9, AROCLOR 1254 (30%), Method: PREINCUBATION) “inactive; negative”; (Test System: AMES SALMONELLA TYPHIMURIUM, Strain/Indicator: TA1537, Metabolic Activation: NONE, Method: PREINCUBATION) “inactive; negative”; (Test System: AMES SALMONELLA TYPHIMURIUM, Strain/Indicator: TA1537, Metabolic Activation: RAT, LIVER, S-9, AROCLOR 1254 (30%), Method: PREINCUBATION) “inactive; negative”; under setting [11], “inactive; negative”.
Take `Cc1cccc(C(=O)Cl)c1`: the mutagenic call was “inactive; negative” under setting [2]; “inactive; negative” under setting [3]; “inactive; negative” under setting [6]; “active; positive” under setting [7]; “active; positive” under setting [9]; “active; positive” under setting [10]. The mutagenic call by setting is: (Test System: E.COLI, Strain/Indicator: WP2 UVRA, Metabolic Activation: NONE, Method: PREINCUBATION) “active; positive”; under setting [11], “active; positive”.
For the molecule `Cc1ccc(NCCCl)cc1`, the mutagenic call is “active; positive” under setting [12]; “active; positive” under setting [13]; “active; positive” (Test System: AMES SALMONELLA TYPHIMURIUM, Strain/Indicator: TA1977, Metabolic Activation: NONE, Method: STANDARD PLATE); “inactive; negative” (Test System: AMES SALMONELLA TYPHIMURIUM, Strain/Indicator: TA1978, Metabolic Activation: NONE, Method: STANDARD PLATE).
For the molecule `ClC(Cl)(Cl)c1ccccc1`, the mutagenic call was “active; positive” under setting [1]; “inactive; negative” under setting [2]; “active; positive” under setting [4]; “active; positive” (Test System: AMES SALMONELLA TYPHIMURIUM, Strain/Indicator: TA98, Metabolic Activation: RAT, LIVER, S-9, AROCLOR 1254, Method: PREINCUBATION); “active; positive” under setting [5]; “active; positive” under setting [6]. Besides, the mutagenic call is “active; positive” under setting [8]; “active; positive” (Test System: AMES SALMONELLA TYPHIMURIUM, Strain/Indicator: TA100, Metabolic Activation: RAT, LIVER, S-9, AROCLOR 1254, Method: PREINCUBATION); “active; positive” (Test System: AMES SALMONELLA TYPHIMURIUM, Strain/Indicator: TA1535, Metabolic Activation: RAT, LIVER, S-9, AROCLOR 1254, Method: PREINCUBATION).
For `Cc1cccc(Nc2ccncc2S(=O)(=O)NC(=O)NC(C)C)c1`, the mutagenic call was “inactive; negative” under setting [12]; “inactive; negative” (Test System: AMES SALMONELLA TYPHIMURIUM, Strain/Indicator: TA98, Metabolic Activation: RAT, LIVER, S-9, Method: STANDARD PLATE); “inactive; negative” under setting [13]; “inactive; negative” (Test System: AMES SALMONELLA TYPHIMURIUM, Strain/Indicator: TA100, Metabolic Activation: RAT, LIVER, S-9, Method: STANDARD PLATE); “inactive; negative” (Test System: AMES SALMONELLA TYPHIMURIUM, Strain/Indicator: TA1535, Metabolic Activation: NONE, Method: STANDARD PLATE); “inactive; negative” (Test System: AMES SALMONELLA TYPHIMURIUM, Strain/Indicator: TA1535, Metabolic Activation: RAT, LIVER, S-9, Method: STANDARD PLATE). Further, the mutagenic call runs as follows: (Test System: AMES SALMONELLA TYPHIMURIUM, Strain/Indicator: TA1537, Metabolic Activation: NONE, Method: STANDARD PLATE) “inactive; negative”; (Test System: AMES SALMONELLA TYPHIMURIUM, Strain/Indicator: TA1537, Metabolic Activation: RAT, LIVER, S-9, Method: STANDARD PLATE) “inactive; negative”; (Test System: E. COLI, Strain/Indicator: WP2 UVRA, Metabolic Activation: NONE, Method: STANDARD PLATE) “inactive; negative”; (Test System: E. COLI, Strain/Indicator: WP2 UVRA, Metabolic Activation: RAT, LIVER, S-9, Method: STANDARD PLATE) “inactive; negative”.
Take `N[C@@H](CS)C(=O)NCC(=O)O`: the mutagenic call (Test System: AMES SALMONELLA TYPHIMURIUM, Strain/Indicator: TA102, Metabolic Activation: NONE, Method: STANDARD PLATE) is “active; positive”.
